Series [1] deals with T1, Multidrug resistance-associated protein 1 (Homo sapiens, UniProt P33527). The series can be described thus: TP_TRANSPORTER: increase in Calcein intracellular accumulation (Calcein: 0.5 uM, Rifampicin: 200 uM) in GLC4/ADR cells. The following applies: glc-4/adr. It is filed as functional, cell-based.
Series [2] concerns the target T1, Multidrug resistance-associated protein 1. The experiment in a line: TP_TRANSPORTER: increase in Calcein intracellular accumulation (Calcein: 0.5 uM, Rifamycin SV: 200 uM) in GLC4/ADR cells. The series is classed as functional, cell-based. The following applies: glc-4/adr.

This is an account of results in ChEMBL document CHEMBL2074559, “Inhibition of multidrug resistance-associated protein (MRP) activity by rifampicin in human multidrug-resistant lung tumor cells” (Cancer Lett, 1999).

T1 sequence (P33527 whole entry): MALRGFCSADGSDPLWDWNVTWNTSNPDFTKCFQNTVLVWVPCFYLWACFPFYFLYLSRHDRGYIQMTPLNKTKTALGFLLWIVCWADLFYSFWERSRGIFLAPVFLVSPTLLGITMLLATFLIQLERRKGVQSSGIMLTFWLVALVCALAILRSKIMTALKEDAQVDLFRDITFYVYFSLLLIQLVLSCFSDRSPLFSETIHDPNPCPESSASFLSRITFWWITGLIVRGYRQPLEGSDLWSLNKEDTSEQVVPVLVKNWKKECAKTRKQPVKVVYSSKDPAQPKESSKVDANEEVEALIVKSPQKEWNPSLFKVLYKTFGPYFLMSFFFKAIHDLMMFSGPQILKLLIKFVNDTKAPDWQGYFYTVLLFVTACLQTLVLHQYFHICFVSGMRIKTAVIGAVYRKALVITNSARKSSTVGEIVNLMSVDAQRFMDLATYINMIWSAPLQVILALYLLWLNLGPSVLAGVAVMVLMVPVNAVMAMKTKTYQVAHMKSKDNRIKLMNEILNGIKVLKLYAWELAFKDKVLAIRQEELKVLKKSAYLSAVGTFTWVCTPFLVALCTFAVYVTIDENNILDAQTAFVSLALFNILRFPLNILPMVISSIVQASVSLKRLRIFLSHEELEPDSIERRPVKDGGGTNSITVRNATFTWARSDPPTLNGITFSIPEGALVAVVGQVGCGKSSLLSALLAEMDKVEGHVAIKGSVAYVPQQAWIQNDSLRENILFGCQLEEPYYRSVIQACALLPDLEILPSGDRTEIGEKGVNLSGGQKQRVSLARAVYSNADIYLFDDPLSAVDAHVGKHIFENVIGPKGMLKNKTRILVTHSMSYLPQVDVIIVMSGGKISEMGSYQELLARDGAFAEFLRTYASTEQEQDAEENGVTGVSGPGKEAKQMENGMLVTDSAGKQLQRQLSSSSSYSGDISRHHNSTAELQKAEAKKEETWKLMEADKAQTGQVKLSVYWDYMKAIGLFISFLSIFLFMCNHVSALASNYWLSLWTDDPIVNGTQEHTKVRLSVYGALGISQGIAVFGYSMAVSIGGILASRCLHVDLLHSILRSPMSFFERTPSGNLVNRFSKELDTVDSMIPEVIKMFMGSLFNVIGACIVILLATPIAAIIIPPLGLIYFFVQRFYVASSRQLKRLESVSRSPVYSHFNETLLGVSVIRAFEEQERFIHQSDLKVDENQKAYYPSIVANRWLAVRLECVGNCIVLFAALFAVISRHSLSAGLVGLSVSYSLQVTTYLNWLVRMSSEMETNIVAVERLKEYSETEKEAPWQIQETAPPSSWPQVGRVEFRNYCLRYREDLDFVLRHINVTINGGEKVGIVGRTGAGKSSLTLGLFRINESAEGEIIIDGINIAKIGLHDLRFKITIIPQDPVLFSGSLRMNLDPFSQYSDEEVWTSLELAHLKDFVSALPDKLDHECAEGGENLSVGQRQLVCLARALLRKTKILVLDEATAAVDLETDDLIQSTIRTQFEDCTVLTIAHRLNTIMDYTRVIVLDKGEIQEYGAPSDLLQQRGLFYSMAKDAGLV

Take `CO[C@H]1/C=C/O[C@@]2(C)Oc3c(C)c(O)c4c(O)c(c(/C=N/N5CCN(C)CC5)c(O)c4c3C2=O)NC(=O)/C(C)=C\C=C\[C@H](C)[C@H](O)[C@@H](C)[C@@H](O)[C@@H](C)[C@H](OC(C)=O)[C@@H]1C` [RIFAMPIN]: in series [1], the Activity is 110%.

`CO[C@H]1/C=C/O[C@@]2(C)Oc3c(C)c(O)c4c(O)c(cc(O)c4c3C2=O)NC(=O)/C(C)=C\C=C\[C@H](C)[C@H](O)[C@@H](C)[C@@H](O)[C@@H](C)[C@H](OC(C)=O)[C@@H]1C` [RIFAMYCIN]: the Activity in series [2] is 110%.
